ChEMBL document CHEMBL3232809, “Synthesis, antibiotic activity and structure-activity relationship study of some 3-enaminetetramic acids” (2014)

What follows are molecules tested on Pseudomonas aeruginosa (assay: Antimicrobial activity against Pseudomonas aeruginosa ATCC 27853).
Type: functional
For CCCC(=O)N1CC(=O)/C(=C(\CCCCc2ccccc2)NC2CC(C)(C)N(C)C(C)(C)C2)C1=O, the MIC was > 32 µg/mL. In the case of CCCCCCC(=O)N1CC(=O)/C(=C(\CCCOc2ccccc2)NCCCOC(C)C)C1=O, the MIC is reported as > 32 µg/mL. CCCCCCC(=O)N1CC(=O)/C(=C(\CCCCCC)NC2CCCCC2)C1=O was tested, and the MIC was > 32 µg/mL. With CSCCC1C(=O)/C(=C(\CC23CC4CC(CC(C4)C2)C3)NCC(C)(C)CN(C)C)C(=O)N1C(C)=O (stereo not given) the MIC was > 32 µg/mL.

Each molecule was assayed on Escherichia coli (assay: Antimicrobial activity against Escherichia coli ATCC 25922).
Type: functional
With CCCC(=O)N1CC(=O)/C(=C(\CCCCc2ccccc2)NC2CC(C)(C)N(C)C(C)(C)C2)C1=O the MIC was > 32 µg/mL. In the case of CCCCCCC(=O)N1CC(=O)/C(=C(\CCCOc2ccccc2)NCCCOC(C)C)C1=O, the MIC is reported as > 32 µg/mL. For CCCCCCC(=O)N1CC(=O)/C(=C(\CCCCCC)NC2CCCCC2)C1=O, the MIC was > 32 µg/mL. CSCCC1C(=O)/C(=C(\CC23CC4CC(CC(C4)C2)C3)NCC(C)(C)CN(C)C)C(=O)N1C(C)=O (stereo not given) was tested, and the MIC was > 32 µg/mL.

These molecules were tested on Escherichia coli (assay: Antimicrobial activity against Escherichia coli 49).
Type: functional
In the case of CCCC(=O)N1CC(=O)/C(=C(\CCCCc2ccccc2)NC2CC(C)(C)N(C)C(C)(C)C2)C1=O, the MIC is reported as > 32 µg/mL. CCCCCCC(=O)N1CC(=O)/C(=C(\CCCOc2ccccc2)NCCCOC(C)C)C1=O was tested, and the MIC was > 32 µg/mL. CCCCCCC(=O)N1CC(=O)/C(=C(\CCCCCC)NC2CCCCC2)C1=O was tested, and the MIC was > 32 µg/mL. With CSCCC1C(=O)/C(=C(\CC23CC4CC(CC(C4)C2)C3)NCC(C)(C)CN(C)C)C(=O)N1C(C)=O (stereo not given) the MIC was > 32 µg/mL.

Each molecule was assayed on Staphylococcus aureus (assay: Antimicrobial activity against vancomycin-susceptible Staphylococcus aureus ATCC 25923).
Type: functional
For CCCC(=O)N1CC(=O)/C(=C(\CCCCc2ccccc2)NC2CC(C)(C)N(C)C(C)(C)C2)C1=O, the MIC was > 32 µg/mL. In the case of CCCCCCC(=O)N1CC(=O)/C(=C(\CCCOc2ccccc2)NCCCOC(C)C)C1=O, the MIC is reported as > 32 µg/mL. CCCCCCC(=O)N1CC(=O)/C(=C(\CCCCCC)NC2CCCCC2)C1=O was tested, and the MIC was > 32 µg/mL. In the case of CSCCC1C(=O)/C(=C(\CC23CC4CC(CC(C4)C2)C3)NCC(C)(C)CN(C)C)C(=O)N1C(C)=O (stereo not given), the MIC is reported as > 32 µg/mL.

What follows are molecules tested on Streptococcus pneumoniae (assay: Antimicrobial activity against penicillin- and erythromycin-resistant Streptococcus pneumoniae in presence of 2.5% horse blood).
Type: functional
CCCC(=O)N1CC(=O)/C(=C(\CCCCc2ccccc2)NC2CC(C)(C)N(C)C(C)(C)C2)C1=O was tested, and the MIC was > 32 µg/mL. CCCCCCC(=O)N1CC(=O)/C(=C(\CCCOc2ccccc2)NCCCOC(C)C)C1=O was tested, and the MIC was > 32 µg/mL. In the case of CCCCCCC(=O)N1CC(=O)/C(=C(\CCCCCC)NC2CCCCC2)C1=O, the MIC is reported as > 32 µg/mL. For CSCCC1C(=O)/C(=C(\CC23CC4CC(CC(C4)C2)C3)NCC(C)(C)CN(C)C)C(=O)N1C(C)=O (stereo not given), the MIC was > 32 µg/mL.

What follows are molecules tested on Staphylococcus aureus (assay: Antimicrobial activity against Staphylococcus aureus Oxford).
Type: functional
CCCC(=O)N1CC(=O)/C(=C(\CCCCc2ccccc2)NC2CC(C)(C)N(C)C(C)(C)C2)C1=O was tested, and the MIC was > 32 µg/mL. CCCCCCC(=O)N1CC(=O)/C(=C(\CCCOc2ccccc2)NCCCOC(C)C)C1=O was tested, and the MIC was > 32 µg/mL. For CCCCCCC(=O)N1CC(=O)/C(=C(\CCCCCC)NC2CCCCC2)C1=O, the MIC was > 32 µg/mL. In the case of CSCCC1C(=O)/C(=C(\CC23CC4CC(CC(C4)C2)C3)NCC(C)(C)CN(C)C)C(=O)N1C(C)=O (stereo not given), the MIC is reported as > 32 µg/mL.

What follows are molecules tested on Haemophilus influenzae (assay: Antimicrobial activity against LS2 Efflux knock-out Haemophilus influenzae).
Type: functional
For CCCC(=O)N1CC(=O)/C(=C(\CCCCc2ccccc2)NC2CC(C)(C)N(C)C(C)(C)C2)C1=O, the MIC was > 32 µg/mL. In the case of CCCCCCC(=O)N1CC(=O)/C(=C(\CCCOc2ccccc2)NCCCOC(C)C)C1=O, the MIC is reported as > 32 µg/mL. In the case of CCCCCCC(=O)N1CC(=O)/C(=C(\CCCCCC)NC2CCCCC2)C1=O, the MIC is reported as > 32 µg/mL. With CSCCC1C(=O)/C(=C(\CC23CC4CC(CC(C4)C2)C3)NCC(C)(C)CN(C)C)C(=O)N1C(C)=O (stereo not given) the MIC was > 32 µg/mL.

Each molecule was assayed on Streptococcus pneumoniae (assay: Antimicrobial activity against penicillin- and erythromycin-resistant Streptococcus pneumoniae).
Type: functional
In the case of CCCC(=O)N1CC(=O)/C(=C(\CCCCc2ccccc2)NC2CC(C)(C)N(C)C(C)(C)C2)C1=O, the MIC is reported as > 32 µg/mL. For CCCCCCC(=O)N1CC(=O)/C(=C(\CCCOc2ccccc2)NCCCOC(C)C)C1=O, the MIC was > 32 µg/mL. CCCCCCC(=O)N1CC(=O)/C(=C(\CCCCCC)NC2CCCCC2)C1=O was tested, and the MIC was > 32 µg/mL. For CSCCC1C(=O)/C(=C(\CC23CC4CC(CC(C4)C2)C3)NCC(C)(C)CN(C)C)C(=O)N1C(C)=O (stereo not given), the MIC was > 32 µg/mL.

The molecules below were run on Enterococcus faecium (assay: Antimicrobial activity against vancomycin-resistant Enterococcus faecium).
Type: functional
In the case of CCCC(=O)N1CC(=O)/C(=C(\CCCCc2ccccc2)NC2CC(C)(C)N(C)C(C)(C)C2)C1=O, the MIC is reported as > 32 µg/mL. For CCCCCCC(=O)N1CC(=O)/C(=C(\CCCOc2ccccc2)NCCCOC(C)C)C1=O, the MIC was > 32 µg/mL. CCCCCCC(=O)N1CC(=O)/C(=C(\CCCCCC)NC2CCCCC2)C1=O was tested, and the MIC was > 32 µg/mL. For CSCCC1C(=O)/C(=C(\CC23CC4CC(CC(C4)C2)C3)NCC(C)(C)CN(C)C)C(=O)N1C(C)=O (stereo not given), the MIC was > 32 µg/mL.

Each molecule was assayed on Staphylococcus aureus (assay: Antimicrobial activity against methicillin-sensitive Staphylococcus aureus ATCC 13709).
Type: functional
For CCCC(=O)N1CC(=O)/C(=C(\CCCCc2ccccc2)NC2CC(C)(C)N(C)C(C)(C)C2)C1=O, the MIC was > 32 µg/mL. CCCCCCC(=O)N1CC(=O)/C(=C(\CCCOc2ccccc2)NCCCOC(C)C)C1=O was tested, and the MIC was > 32 µg/mL. In the case of CCCCCCC(=O)N1CC(=O)/C(=C(\CCCCCC)NC2CCCCC2)C1=O, the MIC is reported as > 32 µg/mL. For CSCCC1C(=O)/C(=C(\CC23CC4CC(CC(C4)C2)C3)NCC(C)(C)CN(C)C)C(=O)N1C(C)=O (stereo not given), the MIC was > 32 µg/mL.

What follows are molecules tested on Enterococcus faecalis (assay: Antimicrobial activity against vancomycin-susceptible Enterococcus faecalis ATCC 29212).
Type: functional
For CCCC(=O)N1CC(=O)/C(=C(\CCCCc2ccccc2)NC2CC(C)(C)N(C)C(C)(C)C2)C1=O, the MIC was > 32 µg/mL. With CCCCCCC(=O)N1CC(=O)/C(=C(\CCCOc2ccccc2)NCCCOC(C)C)C1=O the MIC was > 32 µg/mL. With CCCCCCC(=O)N1CC(=O)/C(=C(\CCCCCC)NC2CCCCC2)C1=O the MIC was > 32 µg/mL. For CSCCC1C(=O)/C(=C(\CC23CC4CC(CC(C4)C2)C3)NCC(C)(C)CN(C)C)C(=O)N1C(C)=O (stereo not given), the MIC was > 32 µg/mL.

Each molecule was assayed on Staphylococcus aureus (assay: Antimicrobial activity against methicillin-resistant Staphylococcus aureus).
Type: functional
CCCC(=O)N1CC(=O)/C(=C(\CCCCc2ccccc2)NC2CC(C)(C)N(C)C(C)(C)C2)C1=O was tested, and the MIC was > 32 µg/mL. With CCCCCCC(=O)N1CC(=O)/C(=C(\CCCOc2ccccc2)NCCCOC(C)C)C1=O the MIC was > 32 µg/mL. In the case of CCCCCCC(=O)N1CC(=O)/C(=C(\CCCCCC)NC2CCCCC2)C1=O, the MIC is reported as > 32 µg/mL. For CSCCC1C(=O)/C(=C(\CC23CC4CC(CC(C4)C2)C3)NCC(C)(C)CN(C)C)C(=O)N1C(C)=O (stereo not given), the MIC was > 32 µg/mL.

These molecules were tested on Streptococcus pneumoniae (assay: Antimicrobial activity against erythromycin-susceptible Streptococcus pneumoniae ATCC 49619).
Type: functional
CCCC(=O)N1CC(=O)/C(=C(\CCCCc2ccccc2)NC2CC(C)(C)N(C)C(C)(C)C2)C1=O was tested, and the MIC was > 32 µg/mL. In the case of CCCCCCC(=O)N1CC(=O)/C(=C(\CCCOc2ccccc2)NCCCOC(C)C)C1=O, the MIC is reported as > 32 µg/mL. In the case of CCCCCCC(=O)N1CC(=O)/C(=C(\CCCCCC)NC2CCCCC2)C1=O, the MIC is reported as > 32 µg/mL. With CSCCC1C(=O)/C(=C(\CC23CC4CC(CC(C4)C2)C3)NCC(C)(C)CN(C)C)C(=O)N1C(C)=O (stereo not given) the MIC was > 32 µg/mL.

These molecules were tested on Escherichia coli (assay: Antimicrobial activity against Escherichia coli 50).
Type: functional
CCCC(=O)N1CC(=O)/C(=C(\CCCCc2ccccc2)NC2CC(C)(C)N(C)C(C)(C)C2)C1=O was tested, and the MIC was > 32 µg/mL. With CCCCCCC(=O)N1CC(=O)/C(=C(\CCCOc2ccccc2)NCCCOC(C)C)C1=O the MIC was > 32 µg/mL. In the case of CCCCCCC(=O)N1CC(=O)/C(=C(\CCCCCC)NC2CCCCC2)C1=O, the MIC is reported as > 32 µg/mL. CSCCC1C(=O)/C(=C(\CC23CC4CC(CC(C4)C2)C3)NCC(C)(C)CN(C)C)C(=O)N1C(C)=O (stereo not given) was tested, and the MIC was > 32 µg/mL.

The molecules below were run on Haemophilus influenzae (assay: Antimicrobial activity against Haemophilus influenzae ATCC 31517 MMSA).
Type: functional
For CCCC(=O)N1CC(=O)/C(=C(\CCCCc2ccccc2)NC2CC(C)(C)N(C)C(C)(C)C2)C1=O, the MIC was > 32 µg/mL. CCCCCCC(=O)N1CC(=O)/C(=C(\CCCOc2ccccc2)NCCCOC(C)C)C1=O was tested, and the MIC was > 32 µg/mL. CCCCCCC(=O)N1CC(=O)/C(=C(\CCCCCC)NC2CCCCC2)C1=O was tested, and the MIC was > 32 µg/mL. With CSCCC1C(=O)/C(=C(\CC23CC4CC(CC(C4)C2)C3)NCC(C)(C)CN(C)C)C(=O)N1C(C)=O (stereo not given) the MIC was > 32 µg/mL.
